IC50 data for 14 molecules are collected here from patent publication US11168093B2, “Thienopyridine inhibitors of RIPK2” (Celgene Corporation, priority 2018, dated 2021).

Molecules are shown by their SMILES. pIC50: −log10 of the molar value. Some results are limits rather than exact numbers.

Chain of RIPK2 enzyme (O43353 whole entry): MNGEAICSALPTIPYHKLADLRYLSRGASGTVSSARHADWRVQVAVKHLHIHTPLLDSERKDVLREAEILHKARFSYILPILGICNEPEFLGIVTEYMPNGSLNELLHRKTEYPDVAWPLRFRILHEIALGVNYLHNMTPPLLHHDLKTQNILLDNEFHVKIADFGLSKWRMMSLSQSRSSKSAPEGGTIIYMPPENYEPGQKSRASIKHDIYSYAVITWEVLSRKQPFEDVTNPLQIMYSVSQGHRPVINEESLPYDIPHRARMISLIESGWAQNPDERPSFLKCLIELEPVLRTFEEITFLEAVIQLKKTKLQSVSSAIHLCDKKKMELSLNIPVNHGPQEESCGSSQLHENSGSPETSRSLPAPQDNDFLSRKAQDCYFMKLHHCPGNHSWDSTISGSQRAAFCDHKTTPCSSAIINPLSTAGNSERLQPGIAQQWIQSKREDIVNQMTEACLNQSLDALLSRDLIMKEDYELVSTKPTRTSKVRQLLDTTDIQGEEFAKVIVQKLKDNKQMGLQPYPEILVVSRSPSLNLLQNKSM

The target of the experiment is RIPK2 enzyme (Homo sapiens (Human), UniProt O43353). The experiment in a line: RIPK2 inhibition assay, TR-FRET LanthaScreen Tracer 199 screening assay. It is filed as binding. Conditions: 5 nM RIPK2 enzyme, Tracer 199 at 50 nM, Eu-anti-His Antibody at 2 nM, 1 hour incubation. Summed up:
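TR-FRET binding displacement: 5 nM RIPK2, 50 nM Tracer 199, 2 nM Eu-anti-His antibody in 1× kinase reaction buffer, 1 h, read at room temperature (340 ex/665 and 615 em). No-enzyme background subtracted; percent inhibition versus uninhibited controls, IC50 from unconstrained variable-slope fit.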
For orientation: pIC50 means the negative decadic logarithm of the IC50, by convention in mol/L. Read a high pIC50 as a low IC50. `CC1(C)NCCC1c1cc2c(Nc3ccc4scnc4c3F)ccnc2s1` (centres unmarked) [Example 90, N-(2-(2,2-dimethylpyrrolidin-3-yl)thieno[2,3-b]pyridin-4-yl)-4-fluorobenzo[d]thiazol-5-amine] had a pIC50 of no less than 8.00.

For the molecule `CCN1CCC(c2cc3c(Nc4ccc5scnc5c4F)ccnc3s2)C1(C)C` (centres unmarked) [Example 91, N-(2-(1-ethyl-2,2-dimethylpyrrolidin-3-yl)thieno[2,3-b]pyridin-4-yl)-4-fluorobenzo[d]thiazol-5-amine], the pIC50 was 7.70 to 8.00.

The molecule `CC1(C)C(c2cc3c(Nc4ccc5scnc5c4F)ccnc3s2)CCN1CCO` (centres unmarked) [Example 92, 2-(3-(4-((4-fluorobenzo[d]thiazol-5-yl)amino)thieno[2,3-b]pyridin-2-yl)-2,2-dimethylpyrrolidin-1-yl)ethan-1-ol] gave a pIC50 of no less than 8.00.

As to `CC1NCCC1c1cc2c(Nc3c(F)cc4scnc4c3F)ccnc2s1` (centres unmarked) [Example 93, 4,6-difluoro-N-(2-(2-methylpyrrolidin-3-yl)thieno[2,3-b]pyridin-4-yl)benzo[d]thiazol-5-amine], the pIC50 was no less than 8.00.

In turn, `CCN1CCC(c2cc3c(Nc4c(F)cc5scnc5c4F)ccnc3s2)C1C` (centres unmarked) [Example 94, N-(2-(1-ethyl-2-methylpyrrolidin-3-yl)thieno[2,3-b]pyridin-4-yl)-4,6-difluorobenzo[d]thiazol-5-amine] had a pIC50 of no less than 8.00.

Consider `CC1C(c2cc3c(Nc4c(F)cc5scnc5c4F)ccnc3s2)CCN1CCO` (centres unmarked) [Example 95, 2-(3-(4-((4,6-difluorobenzo[d]thiazol-5-yl)amino)thieno[2,3-b]pyridin-2-yl)-2-methyl-pyrrolidin-1-yl)ethan-1-ol], for which the pIC50 was 7.70 to 8.00.

In turn, `CC1(C)NCCC1c1cc2c(Nc3c(F)cc4scnc4c3F)ccnc2s1` (centres unmarked) [Example 96, N-(2-(2,2-dimethylpyrrolidin-3-yl)thieno[2,3-b]pyridin-4-yl)-4,6-difluorobenzo[d]thiazol-5-amine] showed a pIC50 of no less than 8.00.

Regarding `CCN1CCC(c2cc3c(Nc4c(F)cc5scnc5c4F)ccnc3s2)C1(C)C` (centres unmarked) [Example 97, N-(2-(1-ethyl-2,2-dimethylpyrrolidin-3-yl)thieno[2,3-b]pyridin-4-yl)-4,6-difluorobenzo[d]thiazol-5-amine], the pIC50 was no less than 8.00.

In the case of `CC1(C)C(c2cc3c(Nc4c(F)cc5scnc5c4F)ccnc3s2)CCN1CCO` (centres unmarked) [Example 98, 2-(3-(4-((4,6-difluorobenzo[d]thiazol-5-yl)amino)thieno[2,3-b]pyridin-2-yl)-2,2-dimethylpyrrolidin-1-yl)ethan-1-ol], the pIC50 was no less than 8.00.

With `Fc1cc2scnc2c(F)c1Nc1ccnc2sc(C3CCNC34CCOC4)cc12` (centres unmarked) [Example 99, N-(2-(7-oxa-1-azaspiro[4.4]nonan-4-yl)thieno[2,3-b]pyridin-4-yl)-4,6-difluorobenzo[d]thiazol-5-amine], the pIC50 is 7.70 to 8.00.

As for `CN1CCC(c2cc3c(Nc4c(F)cc5scnc5c4F)ccnc3s2)C12CCOC2` (centres unmarked) [Example 100, 4,6-difluoro-N-(2-(1-methyl-7-oxa-1-azaspiro[4.4]nonan-4-yl)thieno[2,3-b]pyridin-4-yl)benzo[d]thiazol-5-amine], the pIC50 is 7.70 to 8.00.

As for `CCN1CCC(c2cc3c(Nc4c(F)cc5scnc5c4F)ccnc3s2)C12CCOC2` (centres unmarked) [Example 101, N-(2-(1-ethyl-7-oxa-1-azaspiro[4.4]nonan-4-yl)thieno[2,3-b]pyridin-4-yl)-4,6-difluorobenzo[d]thiazol-5-amine], the pIC50 was 7.30 to 7.70.

`Fc1cc2scnc2c(F)c1Nc1ccnc2sc(C3CCNC34CCOCC4)cc12` (centres unmarked) [Example 102, N-(2-(8-oxa-1-azaspiro[4.5]decan-4-yl)thieno[2,3-b]pyridin-4-yl)-4,6-difluorobenzo[d]thiazol-5-amine] gave a pIC50 of 7.70 to 8.00.

As to `CN1CCC(c2cc3c(Nc4c(F)cc5scnc5c4F)ccnc3s2)C12CCOCC2` (centres unmarked) [Example 103, 4,6-difluoro-N-(2-(1-methyl-8-oxa-1-azaspiro[4.5]decan-4-yl)thieno[2,3-b]pyridin-4-yl)benzo[d]thiazol-5-amine], the pIC50 is 7.30 to 7.70.
